Test results taken from PMC8429728, “TNK1 is a ubiquitin-binding and 14-3-3-regulated kinase that can be targeted to block tumor growth” (Nature Communications, 2021).
Like-named read-outs stand apart in the source and are kept apart here.

How the values were obtained:
Test in all cases: biochemical
Parameters in all cases: Reaction Biology 371-kinase panel at Km ATP, per cent enzyme activity relative to DMSO, single dose in duplicate
[1] = molecular target: SRPK1 (Homo sapiens, UniProt Q96SB4); details: duplicate measurements, Km ATP
Outline: (§1)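 Percent kinase activity relative to vehicle (DMSO) is reported for a 371-kinase in vitro panel at 300 nM compound; IC50 values derive from variable-slope sigmoidal fits with the lower plateau fixed at 0.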

[2] = molecular target: LCK (Homo sapiens, UniProt P06239); details: duplicate measurements, Km ATP
Outline: as §1

[3] = molecular target: T1, MST4 (Homo sapiens, UniProt Q9P289); details: duplicate measurements, Km ATP
T1 construct: gene STK26
Outline: as §1

[4] = molecular target: PDK1/PDPK1 (Homo sapiens, UniProt O15530); details: duplicate measurements, Km ATP
Outline: as §1

[5] = molecular target: STK16 (Homo sapiens, UniProt O75716); details: duplicate measurements, Km ATP
Outline: as §1

[6] = molecular target: TGFBR2 (Homo sapiens, UniProt P37173); details: duplicate measurements, Km ATP
Outline: as §1

[7] = molecular target: GRK2 (Homo sapiens, UniProt P25098); details: duplicate measurements, Km ATP
Outline: as §1

[8] = molecular target: T2, RSK3 (Homo sapiens, UniProt Q15349); details: duplicate measurements, Km ATP
T2 construct: gene RPS6KA2
Outline: as §1

[9] = molecular target: CDK19/cyclin C (Homo sapiens, UniProt Q9BWU1); details: duplicate measurements, Km ATP
Outline: as §1

[10] = molecular target: NEK5 (Homo sapiens, UniProt Q6P3R8); details: duplicate measurements, Km ATP
Outline: as §1

[11] = molecular target: ASK1/MAP3K5 (Homo sapiens, UniProt Q99683); details: duplicate measurements, Km ATP
Outline: as §1

[12] = molecular target: T3, CAMK1b (Homo sapiens, UniProt Q6P2M8); details: duplicate measurements, Km ATP
T3 construct: gene PNCK
Outline: as §1

[13] = molecular target: SRPK2 (Homo sapiens, UniProt P78362); details: duplicate measurements, Km ATP
Outline: as §1

[14] = molecular target: CDK2/cyclin E2 (Homo sapiens, UniProt P24941); details: duplicate measurements, Km ATP
Outline: as §1

[15] = molecular target: T4, PKA (Homo sapiens, UniProt P17612); details: duplicate measurements, Km ATP
T4 construct: gene PRKACA
Outline: as §1

[16] = molecular target: TEC (Homo sapiens, UniProt P42680); details: duplicate measurements, Km ATP
Outline: as §1

[17] = molecular target: PKG2/PRKG2 (Homo sapiens, UniProt Q13237); details: duplicate measurements, Km ATP; read-out: % Enzyme Activity (relative to DMSO controls) / TP-0005801 (0.3µM) / Data 1
Outline: as §1

[18] = molecular target: TAOK3/JIK (Homo sapiens, UniProt Q9H2K8); details: duplicate measurements, Km ATP
Outline: as §1

[19] = molecular target: WNK1 (Homo sapiens, UniProt Q9H4A3); details: duplicate measurements, Km ATP
Outline: as §1

[20] = read-out: % Enzyme Activity (relative to DMSO controls) / TP-0005801 (0.3µM) / Data 1
[21] = read-out: % Enzyme Activity (relative to DMSO controls) / TP-0005801 (0.3µM) / Data 2

T3 sequence (Q6P2M8 whole entry): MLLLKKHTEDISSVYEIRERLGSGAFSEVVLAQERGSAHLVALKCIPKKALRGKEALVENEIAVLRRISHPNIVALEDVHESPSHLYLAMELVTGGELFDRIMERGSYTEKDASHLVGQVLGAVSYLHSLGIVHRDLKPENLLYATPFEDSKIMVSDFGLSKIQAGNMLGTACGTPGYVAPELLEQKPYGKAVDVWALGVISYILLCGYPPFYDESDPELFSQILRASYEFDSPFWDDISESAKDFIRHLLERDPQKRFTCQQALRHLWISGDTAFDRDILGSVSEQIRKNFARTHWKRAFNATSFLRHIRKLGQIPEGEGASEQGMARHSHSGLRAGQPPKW
Sequence of TAOK3/JIK (Q9H2K8 whole entry): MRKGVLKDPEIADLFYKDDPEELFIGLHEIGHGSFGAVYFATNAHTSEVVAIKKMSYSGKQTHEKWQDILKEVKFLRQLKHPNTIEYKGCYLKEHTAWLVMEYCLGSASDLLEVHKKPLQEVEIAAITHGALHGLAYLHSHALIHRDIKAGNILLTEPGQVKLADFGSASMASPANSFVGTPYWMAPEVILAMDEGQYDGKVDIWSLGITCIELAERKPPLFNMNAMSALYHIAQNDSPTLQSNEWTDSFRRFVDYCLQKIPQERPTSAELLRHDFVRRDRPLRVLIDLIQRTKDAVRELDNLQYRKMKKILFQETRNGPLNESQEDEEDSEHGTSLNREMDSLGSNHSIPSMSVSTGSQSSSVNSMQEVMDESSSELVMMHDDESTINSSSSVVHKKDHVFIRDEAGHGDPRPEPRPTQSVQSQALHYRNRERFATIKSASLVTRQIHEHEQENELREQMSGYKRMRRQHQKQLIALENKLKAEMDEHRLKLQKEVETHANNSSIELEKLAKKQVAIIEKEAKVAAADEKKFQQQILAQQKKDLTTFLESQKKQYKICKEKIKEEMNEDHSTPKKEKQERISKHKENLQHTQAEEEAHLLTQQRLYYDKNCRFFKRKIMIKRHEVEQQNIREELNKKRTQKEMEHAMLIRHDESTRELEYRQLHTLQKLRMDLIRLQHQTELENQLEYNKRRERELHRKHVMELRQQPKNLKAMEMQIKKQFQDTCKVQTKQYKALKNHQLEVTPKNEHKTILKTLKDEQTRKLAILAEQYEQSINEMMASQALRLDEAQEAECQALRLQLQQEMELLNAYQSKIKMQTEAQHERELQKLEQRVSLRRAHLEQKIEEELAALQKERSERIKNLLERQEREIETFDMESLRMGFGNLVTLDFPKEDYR
T1 sequence (Q9P289 whole entry): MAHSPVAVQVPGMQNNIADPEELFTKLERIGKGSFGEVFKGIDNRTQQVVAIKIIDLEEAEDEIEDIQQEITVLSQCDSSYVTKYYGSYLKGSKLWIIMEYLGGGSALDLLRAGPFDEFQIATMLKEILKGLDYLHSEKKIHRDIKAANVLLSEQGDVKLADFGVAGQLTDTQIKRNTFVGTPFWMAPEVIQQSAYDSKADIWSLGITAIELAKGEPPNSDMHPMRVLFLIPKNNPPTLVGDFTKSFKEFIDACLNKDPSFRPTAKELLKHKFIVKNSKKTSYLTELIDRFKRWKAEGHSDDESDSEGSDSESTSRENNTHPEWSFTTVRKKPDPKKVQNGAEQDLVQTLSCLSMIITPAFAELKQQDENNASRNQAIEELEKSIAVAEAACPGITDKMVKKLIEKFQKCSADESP
Sequence of GRK2 (P25098 whole entry): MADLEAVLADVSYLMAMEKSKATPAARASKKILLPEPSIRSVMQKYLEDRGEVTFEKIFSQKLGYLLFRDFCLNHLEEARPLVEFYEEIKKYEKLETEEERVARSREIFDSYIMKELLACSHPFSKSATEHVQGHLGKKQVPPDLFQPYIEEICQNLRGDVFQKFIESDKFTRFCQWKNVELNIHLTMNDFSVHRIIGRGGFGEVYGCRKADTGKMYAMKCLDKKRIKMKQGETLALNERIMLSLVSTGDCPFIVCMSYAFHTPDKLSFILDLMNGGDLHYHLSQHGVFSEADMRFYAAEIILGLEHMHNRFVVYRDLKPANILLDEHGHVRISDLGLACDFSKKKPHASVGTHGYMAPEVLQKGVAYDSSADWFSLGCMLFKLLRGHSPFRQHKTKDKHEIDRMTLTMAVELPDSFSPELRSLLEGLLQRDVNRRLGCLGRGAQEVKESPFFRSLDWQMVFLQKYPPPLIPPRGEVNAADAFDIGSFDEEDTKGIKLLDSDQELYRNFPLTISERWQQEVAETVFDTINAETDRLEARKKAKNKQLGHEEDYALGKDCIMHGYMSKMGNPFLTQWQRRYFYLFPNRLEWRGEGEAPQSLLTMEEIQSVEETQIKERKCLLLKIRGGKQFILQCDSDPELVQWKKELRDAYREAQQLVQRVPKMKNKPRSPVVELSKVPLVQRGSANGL
Sequence of STK16 (O75716 whole entry): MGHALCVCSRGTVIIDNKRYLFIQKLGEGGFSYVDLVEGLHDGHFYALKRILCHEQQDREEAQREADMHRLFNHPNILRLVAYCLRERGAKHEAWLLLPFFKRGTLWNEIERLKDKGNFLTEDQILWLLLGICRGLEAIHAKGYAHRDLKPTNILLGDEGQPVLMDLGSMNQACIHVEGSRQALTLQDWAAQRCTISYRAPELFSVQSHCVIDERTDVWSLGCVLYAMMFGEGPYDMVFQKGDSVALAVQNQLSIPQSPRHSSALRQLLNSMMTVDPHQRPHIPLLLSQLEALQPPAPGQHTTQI
Sequence of CDK19/cyclin C (Q9BWU1 whole entry): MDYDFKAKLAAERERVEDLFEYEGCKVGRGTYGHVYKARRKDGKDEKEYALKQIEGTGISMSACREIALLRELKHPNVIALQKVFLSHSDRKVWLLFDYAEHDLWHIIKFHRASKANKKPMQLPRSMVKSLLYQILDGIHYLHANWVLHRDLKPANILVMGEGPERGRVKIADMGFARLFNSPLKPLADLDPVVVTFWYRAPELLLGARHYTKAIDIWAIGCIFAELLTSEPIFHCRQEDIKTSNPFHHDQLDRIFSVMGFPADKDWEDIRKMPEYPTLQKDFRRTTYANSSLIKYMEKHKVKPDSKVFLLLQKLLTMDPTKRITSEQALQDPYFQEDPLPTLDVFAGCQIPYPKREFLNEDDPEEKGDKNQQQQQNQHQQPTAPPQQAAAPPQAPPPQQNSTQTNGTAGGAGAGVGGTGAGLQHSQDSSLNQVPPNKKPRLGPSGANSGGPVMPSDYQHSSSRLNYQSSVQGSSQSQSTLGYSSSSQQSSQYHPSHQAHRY
Sequence of CDK19/cyclin C (P24863 whole entry partner): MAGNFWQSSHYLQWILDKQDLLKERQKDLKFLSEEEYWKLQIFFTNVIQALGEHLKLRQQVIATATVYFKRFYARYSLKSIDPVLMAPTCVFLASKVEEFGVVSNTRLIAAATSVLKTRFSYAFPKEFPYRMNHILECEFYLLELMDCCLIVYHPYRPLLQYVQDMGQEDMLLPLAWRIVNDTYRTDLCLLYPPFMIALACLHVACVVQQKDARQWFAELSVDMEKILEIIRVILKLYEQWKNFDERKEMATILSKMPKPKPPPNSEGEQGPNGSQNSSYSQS
Sequence of TGFBR2 (P37173 whole entry): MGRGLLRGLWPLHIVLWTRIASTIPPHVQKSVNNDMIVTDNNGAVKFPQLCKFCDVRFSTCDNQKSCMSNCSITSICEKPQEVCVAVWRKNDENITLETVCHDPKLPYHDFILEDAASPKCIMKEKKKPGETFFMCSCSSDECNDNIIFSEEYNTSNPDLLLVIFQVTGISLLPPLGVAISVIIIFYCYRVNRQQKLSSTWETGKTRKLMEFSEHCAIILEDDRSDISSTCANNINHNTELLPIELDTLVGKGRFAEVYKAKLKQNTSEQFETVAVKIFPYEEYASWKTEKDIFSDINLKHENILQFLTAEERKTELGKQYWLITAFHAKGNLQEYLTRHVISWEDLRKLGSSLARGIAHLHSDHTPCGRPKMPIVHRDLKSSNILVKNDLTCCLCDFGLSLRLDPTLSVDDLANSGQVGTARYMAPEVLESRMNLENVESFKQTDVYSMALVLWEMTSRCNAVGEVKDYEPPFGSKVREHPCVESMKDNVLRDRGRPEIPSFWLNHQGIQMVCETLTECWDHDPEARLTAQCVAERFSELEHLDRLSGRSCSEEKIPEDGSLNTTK
T2 sequence (Q15349 whole entry): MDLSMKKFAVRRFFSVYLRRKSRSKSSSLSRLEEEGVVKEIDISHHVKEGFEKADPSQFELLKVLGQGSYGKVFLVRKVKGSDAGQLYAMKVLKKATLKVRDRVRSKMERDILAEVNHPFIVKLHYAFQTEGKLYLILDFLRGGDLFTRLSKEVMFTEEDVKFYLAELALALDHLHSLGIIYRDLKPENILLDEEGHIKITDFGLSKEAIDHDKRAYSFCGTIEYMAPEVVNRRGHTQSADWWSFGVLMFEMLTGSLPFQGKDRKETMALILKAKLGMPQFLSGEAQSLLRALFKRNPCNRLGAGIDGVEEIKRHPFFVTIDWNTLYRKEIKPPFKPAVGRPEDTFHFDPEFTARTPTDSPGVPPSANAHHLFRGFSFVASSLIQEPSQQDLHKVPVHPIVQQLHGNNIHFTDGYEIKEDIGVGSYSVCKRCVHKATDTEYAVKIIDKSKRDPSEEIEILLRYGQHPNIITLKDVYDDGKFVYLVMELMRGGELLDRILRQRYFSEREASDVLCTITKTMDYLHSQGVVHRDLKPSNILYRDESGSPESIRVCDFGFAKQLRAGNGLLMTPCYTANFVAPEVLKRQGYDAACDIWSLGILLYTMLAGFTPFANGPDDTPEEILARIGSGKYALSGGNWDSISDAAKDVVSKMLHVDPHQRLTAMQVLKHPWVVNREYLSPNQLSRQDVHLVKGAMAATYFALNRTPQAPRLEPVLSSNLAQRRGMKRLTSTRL

For `COc1cc(N2CCN(C)CC2)c(C)cc1Nc1ncc(Br)c(Nc2cccnc2N(C)C)n1` [TP-5801], which remaining activity at 0.3 µM [1, 20] is on record?
Its remaining activity at 0.3 µM is 96.5%.

What about the remaining activity at 0.3 µM [1, 21] of the same compound?
The remaining activity at 0.3 µM was 93.9%.

And the remaining activity at 0.3 µM [2, 20]?
Its remaining activity at 0.3 µM is 101%.

What about the remaining activity at 0.3 µM [2, 21] of the same compound?
The remaining activity at 0.3 µM was 99.4%.

What about the remaining activity at 0.3 µM [3, 20] of the same compound?
The remaining activity at 0.3 µM was 101%.

What about the remaining activity at 0.3 µM [3, 21] of the same compound?
Its remaining activity at 0.3 µM is 92.7%.

What about the remaining activity at 0.3 µM [4, 20] of the same compound?
Its remaining activity at 0.3 µM is 89.9%.

And the remaining activity at 0.3 µM [4, 21]?
The remaining activity at 0.3 µM was 89.6%.

What about the remaining activity at 0.3 µM [5, 20] of the same compound?
Its remaining activity at 0.3 µM is 107%.

And the remaining activity at 0.3 µM [5, 21]?
The remaining activity at 0.3 µM was 105%.

And the remaining activity at 0.3 µM [6, 20]?
Its remaining activity at 0.3 µM is 99.3%.

And the remaining activity at 0.3 µM [6, 21]?
The remaining activity at 0.3 µM was 97.8%.

What about the remaining activity at 0.3 µM [7, 20] of the same compound?
Its remaining activity at 0.3 µM is 93%.

What about the remaining activity at 0.3 µM [7, 21] of the same compound?
The remaining activity at 0.3 µM was 91.7%.

And the remaining activity at 0.3 µM [8, 20]?
Its remaining activity at 0.3 µM is 80.3%.

And the remaining activity at 0.3 µM [8, 21]?
Its remaining activity at 0.3 µM is 79.2%.

What about the remaining activity at 0.3 µM [9, 20] of the same compound?
The remaining activity at 0.3 µM was 54.8%.

What about the remaining activity at 0.3 µM [9, 21] of the same compound?
The remaining activity at 0.3 µM was 54.1%.

And the remaining activity at 0.3 µM [10, 20]?
The remaining activity at 0.3 µM was 98.5%.

And the remaining activity at 0.3 µM [10, 21]?
The remaining activity at 0.3 µM was 96.9%.

And the remaining activity at 0.3 µM [11, 20]?
The remaining activity at 0.3 µM was 99%.

What about the remaining activity at 0.3 µM [11, 21] of the same compound?
The remaining activity at 0.3 µM was 98.6%.

And the remaining activity at 0.3 µM [12, 20]?
The remaining activity at 0.3 µM was 119%.

And the remaining activity at 0.3 µM [12, 21]?
The remaining activity at 0.3 µM was 114%.

What about the remaining activity at 0.3 µM [13, 20] of the same compound?
The remaining activity at 0.3 µM was 114%.

What about the remaining activity at 0.3 µM [13, 21] of the same compound?
Its remaining activity at 0.3 µM is 110%.

And the remaining activity at 0.3 µM [14, 20]?
Its remaining activity at 0.3 µM is 102%.

And the remaining activity at 0.3 µM [14, 21]?
Its remaining activity at 0.3 µM is 101%.

What about the remaining activity at 0.3 µM [15, 20] of the same compound?
The remaining activity at 0.3 µM was 110%.

And the remaining activity at 0.3 µM [15, 21]?
The remaining activity at 0.3 µM was 108%.

And the remaining activity at 0.3 µM [16, 20]?
The remaining activity at 0.3 µM was 93.4%.

What about the remaining activity at 0.3 µM [16, 21] of the same compound?
Its remaining activity at 0.3 µM is 92.2%.

And the remaining activity at 0.3 µM [17]?
The remaining activity at 0.3 µM was 111%.

And the remaining activity at 0.3 µM [18, 20]?
Its remaining activity at 0.3 µM is 88.2%.

What about the remaining activity at 0.3 µM [18, 21] of the same compound?
Its remaining activity at 0.3 µM is 86.8%.

And the remaining activity at 0.3 µM [19, 20]?
The remaining activity at 0.3 µM was 108%.

And the remaining activity at 0.3 µM [19, 21]?
The remaining activity at 0.3 µM was 104%.
